Results published in patent US20140155376A1, “PYRROLOPYRAZINE KINASE INHIBITORS” (Hoffmann-La Roche Inc., priority 2010, published 2014).

molecular target: T1, JAK3 (recombinant human kinase domain; h-jak3(810-1124)) (Homo sapiens, UniProt P52333); assay: Determination of IC50 of Janus Kinase (JAK) inhibition: JAK3, radioactive end-point assay with 33P-ATP; format: biochemical; conditions: JAK3 kinase domain; ATP 1.5 uM, peptide 50 uM, 20 minutes, room temperature, 10% DMSO; read-out: Ic50 h-jak3(810-1124)-sf9-c:no additive
T1 construct: h-jak3(810- 1124)-sf9-c; made in house; host or cells: Sf9 insect cells
T1 sequence (P52333 810-1124): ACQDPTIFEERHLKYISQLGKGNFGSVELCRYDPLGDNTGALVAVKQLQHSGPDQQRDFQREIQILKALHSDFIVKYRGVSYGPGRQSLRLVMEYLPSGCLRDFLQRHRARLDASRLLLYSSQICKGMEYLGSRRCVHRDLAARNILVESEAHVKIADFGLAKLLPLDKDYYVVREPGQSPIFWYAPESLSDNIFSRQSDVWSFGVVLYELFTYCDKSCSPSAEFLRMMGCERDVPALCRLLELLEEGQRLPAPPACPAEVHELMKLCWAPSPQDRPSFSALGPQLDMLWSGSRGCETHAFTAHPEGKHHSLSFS

Row | IC50 [nM] | SMILES
1 | 7.46 | C[C@@H](NC(=O)c1c[nH]c2ncc(C3CC3)nc12)C(C)(C)C [Example I-62, 2-Cyclopropyl-5H-pyrrolo[2,3-b]pyrazine-7-carboxylic acid ((R)-1,2,2-trimethyl-propyl)-amide]
2 | 891 | C[C@@H](NC(=O)c1c[nH]c2ncc(Oc3ccc(F)cc3F)nc12)C(C)(C)C [Example I-134, 2-(2,4-Difluoro-phenoxy)-5H-pyrrolo[2,3-b]pyrazine-7-carboxylic acid ((R)-1,2,2-trimethyl-propyl)-amide]
3 | 0.91 | C[C@H](NC(=O)c1c[nH]c2ncc(-c3ccc(C(=O)NC4CCOCC4)s3)nc12)C(C)(C)C#N [Example I-223, 2-[5-(Tetrahydro-pyran-4-ylcarbamoyl)-thiophen-2-yl]-5H-pyrrolo[2,3-b]pyrazine-7-carboxylic acid ((S)-2-cyano-1,2,2-trimethyl-ethyl)-amide]
4 | 283 | CC(=O)N1CCCC(CNC(=O)c2c[nH]c3ncc(C4CC4)nc23)C1 (stereo not shown) [Example I-136, 2-Cyclopropyl-5H-pyrrolo[2,3-b]pyrazine-7-carboxylic acid (1-acetyl-piperidin-3-ylmethyl)-amide]
5 | 11.1 | CC(C)(CNC(=O)c1c[nH]c2ncc(C3CC3)nc12)CS(C)(=O)=O [Example I-98, 2-Cyclopropyl-5H-pyrrolo[2,3-b]pyrazine-7-carboxylic acid (3-methanesulfonyl-2,2-dimethyl-propyl)-amide]
6 | 0.18 | C[C@H](NC(=O)c1c[nH]c2ncc(-c3ccc(C(=O)NCCC(F)(F)F)s3)nc12)C(C)(C)C [Example I-216, 2-[5-(3,3,3-Trifluoro-propylcarbamoyl)-thiophen-2-yl]-5H-pyrrolo[2,3-b]pyrazine-7-carboxylic acid ((S)-1,2,2-trimethyl-propyl)-amide]
7 | 810 | CCNC(=O)c1c[nH]c2ncc(Oc3cccc(OC)c3)nc12 [Example I-264, 2-(3-Methoxy-phenoxy)-5H-pyrrolo[2,3-b]pyrazine-7-carboxylic acid ethylamide]
8 | 138 | CC(C)NC(=O)c1c[nH]c2ncc(Oc3ccc4c(c3)[C@H](N)CC4)nc12 [Example I-281, 2-((R)-3-Amino-indan-5-yloxy)-5H-pyrrolo[2,3-b]pyrazine-7-carboxylic acid isopropylamide]
9 | 0.23 | CC(NC(=O)c1ccc(-c2cnc3[nH]cc(C(=O)N[C@@H](C)C(C)(C)C)c3n2)s1)c1cccnc1 (stereo partly drawn) [Example I-171, 2-[5-(1-Pyridin-3-yl-ethylcarbamoyl)-thiophen-2-yl]-5H-pyrrolo[2,3-b]pyrazine-7-carboxylic acid ((S)-1,2,2-trimethyl-propyl)-amide]
10 | 2.99 | C[C@H](NC(=O)c1c[nH]c2ncc(-c3cn(-c4cc(C(F)(F)F)ccc4F)cn3)nc12)C(C)(C)C [Example I-149, 2-[1-(2-Fluoro-5-trifluoromethyl-phenyl)-1H-imidazol-4-yl]-5H-pyrrolo[2,3-b]pyrazine-7-carboxylic acid ((S)-1,2,2-trimethyl-propyl)-amide]
11 | 0.53 | CC(Cc1ccc(F)cc1)NC(=O)c1ccc(-c2cnc3[nH]cc(C(=O)N[C@@H](C)C(C)(C)C)c3n2)s1 (stereo partly drawn) [Example I-159, 2-{5-[2-(4-Fluoro-phenyl)-1-methyl-ethylcarbamoyl]-thiophen-2-yl}-5H-pyrrolo[2,3-b]pyrazine-7-carboxylic acid ((S)-1,2,2-trimethyl-propyl)-amide]
12 | 68.7 | CCC(NC(=O)c1c[nH]c2ncc(C3CC3)nc12)C1CCCCC1 (stereo not shown) [Example I-75, 2-Cyclopropyl-5H-pyrrolo[2,3-b]pyrazine-7-carboxylic acid (1-cyclohexyl-propyl)-amide]
13 | 61.3 | O=C(NCC1CCCCC1)c1c[nH]c2ncc(C3CC3)nc12 [Example I-107, 2-Cyclopropyl-5H-pyrrolo[2,3-b]pyrazine-7-carboxylic acid cyclohexylmethyl-amide]
14 | 140 | CC(C)NC(=O)c1c[nH]c2ncc(Oc3ccc4c(c3)[C@H](O)CC4)nc12 [Example I-303, 2-((R)-3-Hydroxy-indan-5-yloxy)-5H-pyrrolo[2,3-b]pyrazine-7-carboxylic acid isopropylamide]
15 | 343 | CC(C)(C)[C@@H](CO)NC(=O)c1c[nH]c2ncc(C3CC3)nc12 [Example I-47, 2-Cyclopropyl-5H-pyrrolo[2,3-b]pyrazine-7-carboxylic acid ((S)-1-hydroxymethyl-2,2-dimethyl-propyl)-amide]
16 | 3300 | C[C@@H](NC(=O)c1c[nH]c2ncc(C#N)nc12)C(C)(C)O [Example I-115, 2-Cyano-5H-pyrrolo[2,3-b]pyrazine-7-carboxylic acid ((R)-2-hydroxy-1,2-dimethyl-propyl)-amide]
17 | 0.73 | C[C@H](NC(=O)c1c[nH]c2ncc(-c3ccc(C(=O)NCc4cccc(C(F)(F)F)c4)s3)nc12)C(C)(C)C [Example I-207, 2-[5-(3-Trifluoromethyl-benzylcarbamoyl)-thiophen-2-yl]-5H-pyrrolo[2,3-b]pyrazine-7-carboxylic acid ((S)-1,2,2-trimethyl-propyl)-amide]

Row | IC50 [nM] | SMILES
18 | 84.5 | CC(C)(O)C(CCO)NC(=O)c1c[nH]c2ncc(C3CC3)nc12 (stereo not shown) [Example I-17, 2-Cyclopropyl-5H-pyrrolo[2,3-b]pyrazine-7-carboxylic acid [2-hydroxy-1-(2-hydroxy-ethyl)-2-methyl-propyl]-amide]
19 | 63.8 | CC(C)[C@H](C)NC(=O)c1c[nH]c2ncc(Oc3ccccc3)nc12 [Example I-122, 2-Phenoxy-5H-pyrrolo[2,3-b]pyrazine-7-carboxylic acid ((S)-1,2-dimethyl-propyl)-amide]
20 | 0.21 | C[C@H](NC(=O)c1c[nH]c2ncc(-c3ccc(C(N)=O)s3)nc12)C(C)(C)C [Example I-215, 2-(5-Carbamoyl-thiophen-2-yl)-5H-pyrrolo[2,3-b]pyrazine-7-carboxylic acid ((S)-1,2,2-trimethyl-propyl)-amide]
21 | 5200 | CC(C)NC(=O)c1c[nH]c2ncc(Oc3cccc4c3CCCC4)nc12 [Example I-239, 2-(5,6,7,8-Tetrahydro-naphthalen-1-yloxy)-5H-pyrrolo[2,3-b]pyrazine-7-carboxylic acid isopropylamide]
22 | 0.42 | Cc1ccc(CNC(=O)c2ccc(-c3cnc4[nH]cc(C(=O)N[C@@H](C)C(C)(C)C)c4n3)s2)o1 [Example I-193, 2-{5-[(5-Methyl-furan-2-ylmethyl)-carbamoyl]-thiophen-2-yl}-5H-pyrrolo[2,3-b]pyrazine-7-carboxylic acid ((S)-1,2,2-trimethyl-propyl)-amide]
23 | 6.61 | CCn1cc(-c2cnc3[nH]cc(C(=O)N[C@H](C)C(C)(C)O)c3n2)cn1 [Example I-99, 2-(1-Ethyl-1H-pyrazol-4-yl)-5H-pyrrolo[2,3-b]pyrazine-7-carboxylic acid ((R)-2-hydroxy-1,2-dimethyl-propyl)-amide]
24 | 262 | COC[C@@H](NC(=O)c1c[nH]c2ncc(C3CC3)nc12)C(C)(C)C [Example I-65, 2-Cyclopropyl-5H-pyrrolo[2,3-b]pyrazine-7-carboxylic acid ((S)-1-methoxymethyl-2,2-dimethyl-propyl)-amide]
25 | 4.61 | C[C@H](NC(=O)c1c[nH]c2ncc(-c3cn(-c4cccc(Cl)c4)cn3)nc12)C(C)(C)C [Example I-145, 2-[1-(3-Chloro-phenyl)-1H-imidazol-4-yl]-5H-pyrrolo[2,3-b]pyrazine-7-carboxylic acid ((S)-1,2,2-trimethyl-propyl)-amide]
26 | 0.4 | COc1ccccc1CNC(=O)c1ccc(-c2cnc3[nH]cc(C(=O)N[C@@H](C)C(C)(C)C)c3n2)s1 [Example I-203, 2-[5-(2-Methoxy-benzylcarbamoyl)-thiophen-2-yl]-5H-pyrrolo[2,3-b]pyrazine-7-carboxylic acid ((S)-1,2,2-trimethyl-propyl)-amide]
27 | 155 | CC(C)NC(=O)c1c[nH]c2ncc(Oc3ccc4c(c3)[C@H](NS(C)(=O)=O)CC4)nc12 [Example I-268, 2-((R)-3-Methanesulfonylamino-indan-5-yloxy)-5H-pyrrolo[2,3-b]pyrazine-7-carboxylic acid isopropylamide]
28 | 1410 | O=C(N[C@@H](CC1CCCCC1)[C@@H](O)[C@@H](O)C1CC1)c1c[nH]c2ncc(C3CC3)nc12 [Example I-88, 2-Cyclopropyl-5H-pyrrolo[2,3-b]pyrazine-7-carboxylic acid ((1S,2R,3S)-1-cyclohexylmethyl-3-cyclopropyl-2,3-dihydroxy-propyl)-amide]
29 | 27.1 | CC(C)(O)[C@H](NC(=O)c1c[nH]c2ncc(C3CC3)nc12)C1CC1 [Example I-74, 2-Cyclopropyl-5H-pyrrolo[2,3-b]pyrazine-7-carboxylic acid ((R)-1-cyclopropyl-2-hydroxy-2-methyl-propyl)-amide]
30 | 1530 | CCNC(=O)c1c[nH]c2ncc(Oc3ccc4c(c3)CCCC4)nc12 [Example I-260, 2-(5,6,7,8-Tetrahydro-naphthalen-2-yloxy)-5H-pyrrolo[2,3-b]pyrazine-7-carboxylic acid ethylamide]
31 | 0.35 | CC(C)NC(=O)c1ccc(-c2cnc3[nH]cc(C(=O)N[C@@H](C)C(C)(C)C)c3n2)s1 [Example I-156, 2-(5-Isopropyl-carbamoyl-thiophen-2-yl)-5H-pyrrolo[2,3-b]pyrazine-7-carboxylic acid ((S)-1,2,2-trimethyl-propyl)-amide]
32 | 1070 | CCNC(=O)c1c[nH]c2ncc(Oc3cccc(Cl)c3)nc12 [Example I-244, 2-(3-Chloro-phenoxy)-5H-pyrrolo[2,3-b]pyrazine-7-carboxylic acid ethylamide]
33 | 310 | CC(C)NC(=O)c1c[nH]c2ncc(Oc3cccc(Cl)c3)nc12 [Example I-243, 2-(3-Chloro-phenoxy)-5H-pyrrolo[2,3-b]pyrazine-7-carboxylic acid isopropylamide]
34 | 980 | CC(C)NC(=O)c1c[nH]c2ncc(Oc3cccc(C(C)C)c3)nc12 [Example I-234, 2-(3-Isopropyl-phenoxy)-5H-pyrrolo[2,3-b]pyrazine-7-carboxylic acid isopropylamide]
